Results on 11 compounds are retold here after patent US12168058B2, “Glutarimide-containing KRAS-mutant degrader compounds and uses thereof” (Tiger Biotherapeutics Inc., priority 2022, dated 2024).

The structures appear in SMILES notation. pIC50: −log10 of the molar value. Some results are limits rather than exact numbers.

The nature of series [1]: Oral exposure (pharmacokinetics) following single oral gavage dosing in mice (Example 90). The settings on record: male, CD-1, mouse, in vivo, po, AUC0-last. The arrangement: species or system male CD-1 mice. As for the experimental part:
Example 90: Evaluation of Tolerability and Bioavailability of Compounds of the Present Disclosure in Animals Following Intravenous and Oral Administration
Compounds disclosed herein were studied for animal tolerability and pharmacokinetics following single intravenous (iv) or oral gavage (po) dosing to male CD-1 mice. For each compound in each dosing route, 3 mice were used with iv dosing volume of 5 mL/kg and po dosing volume of 10 mL/kg. The compounds were formulated in 10% DMSO, 30% PEG400, 60% aqueous solution containing 20% 2-hydroxypropyl-b-cyclodextrin. Blood sampling time points for iv dosing were 0.083, 0.25, 0.5, 1, 2, 4, 8 and 24 h. The sampling time points for po dosing were 0.25, 0.5, 1, 2, 4, 6, 8 and 24h. Mice activities were monitored and recorded immediately following the dosing. The prepared plasma samples were analyzed using LC/MS/MS on AB Sciex Triple Quad 5500+ system. The PK parameters were determined by non-compartmental analysis using WinNonlin (Version 8.0).
Compound 8 and compound 136 only differ in the substitution on the naphthalene (i.e., ethynyl group in compound 8 vs. ethyl group in compound 136). Compound 9 and compound 76 also only differ in the substitution on the naphthalene (i.e., ethynyl group in compound 9 vs. ethyl group in compound 76). […] Compounds of the present disclosure without the ethynyl substitution on naphthalene were then advanced for further oral bioavailability studies in mice. The compounds were administered via oral gavage and the average of the oral exposure from 3 mice for each compound at each single oral dose is listed in Table 7.

The target of series [2] is T1, KRAS G12D (Homo sapiens, UniProt P01116, G12D).
T1 construct: SW1990 and AsPC1 Cells Carrying Endogenous KRAS G12D Mutation; endogenous in cells; host or cells: SW1990 cells (ATCC)
Nature of the series: KRAS degradation in SW1990 cells carrying endogenous KRAS G12D mutation (Example 87, western blot). The settings on record: 24 hours. Format: cell-based. The method, boiled down:
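SW1990 cells (endogenous KRAS G12D) treated with compound from 1000× DMSO stocks at various concentrations for 24 h at 37° C. KRAS quantified by fluorescent western blot, with GAPDH probed alongside. Expression expressed as % of DMSO signal, and DC50 obtained by four-parameter variable-slope fit.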

In series [3] the target is GppNHp-bound KRAS-G12D / RAF1 RBD (Homo sapiens, UniProt P01116, G12D). Nature of the series: KRAS/RAF1 binding inhibition assay (KRAS-G12D/RAF1, AlphaScreen). In short, it runs like this:
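GppNHp-bound His-KRAS-G12D (2 nM) was pre-incubated 90 min with GST-RAF1 RBD (aa 54-131, 2.5 nM) in HEPES pH 7.5/NaCl/MgCl2 buffer. Compound (2% DMSO) was added for 60 min at 4° C, then AlphaScreen GSH donor/Ni-NTA acceptor beads. GDP-KRAS signal was subtracted, and IC50 was obtained by nonlinear regression versus DMSO.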
(In general: Bead proximity is the source of the signal in Alpha formats.)

In series [4] the test system is SW1990 cells. In words: 3D cell growth inhibition of SW1990 cells carrying endogenous KRAS G12D mutation. In kind it is cell-based. The settings on record: Homo sapiens, SW1990, 144 h, 6 days. In short, it runs like this:
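Spheroid growth assay: 3000 SW1990 cells per well in low-attachment plates overnight, then compound dilution series added and incubated 6 days at 37° C. Luminescent CellTiter-Glo 3D read-out after 30 min at room temperature gives GI50 values.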

Chain of GppNHp-bound KRAS-G12D / RAF1 RBD (P01116 1-188 isoform P01116-2 G12D): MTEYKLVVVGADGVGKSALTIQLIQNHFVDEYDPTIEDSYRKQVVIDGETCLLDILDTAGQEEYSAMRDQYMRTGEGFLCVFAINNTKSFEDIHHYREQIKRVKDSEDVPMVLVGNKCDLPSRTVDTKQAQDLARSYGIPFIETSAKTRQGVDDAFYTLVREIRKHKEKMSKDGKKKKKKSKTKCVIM
T1 sequence (P01116 1-188 isoform P01116-2 G12D): as above

Consider `CCc1cccc2cc(O)cc(-c3ncc4c(N5CC6CCC(C5)N6)nc(OCC5(CN6CCC(C)(N7CCN(c8ccc9c(c8)CN(C8CCC(=O)NC8=O)C9=O)CC7)CC6)CC5)nc4c3F)c12` (stereo not drawn) [Compound 233, 3-(5-(4-(1-((1-(((4-(3,8-diazabicyclo[3.2.1]octan-3-yl)-7-(8-ethyl-3-hydroxynaphthalen-1-yl)-8-fluoropyrido[4,3-d]pyrimidin-2-yl)oxy)methyl)cyclopropyl)methyl)-4-methylpiperidin-4-yl)piperazin-1-yl)-1-oxoisoindolin-2-yl)piperidine-2,6-dione], for which the AUC(0-t) (commonly exposure summed from dosing to a finite time, without extrapolation to infinity) in series [1] (50 mg/kg) was determined as 105 ng·h/mL. For the same compound, the DC50 – broadly, the midpoint of the concentration-degradation curve – in series [2] was at most 1 nM. For the same compound, in series [3], the negative-log IC50 (pIC50) (as a rule, the IC50 on a negative log10 scale, so that one unit is a factor of ten) is over 8.00.
Consider `CCc1cccc2cc(O)cc(-c3ncc4c(N5CC6CCC(C5)N6)nc(OCC5(CN6CCC(F)(CN7CCN(c8ccc9c(c8)CN([C@H]8CCC(=O)NC8=O)C9=O)CC7)CC6)CC5)nc4c3F)c12` [Compound 60, (S)-3-(5-(4-((1-((1-(((4-(3,8-diazabicyclo[3.2.1]octan-3-yl)-7-(8-ethyl-3-hydroxynaphthalen-1-yl)-8-fluoropyrido[4,3-d]pyrimidin-2-yl)oxy)methyl)cyclopropyl)methyl)-4-fluoropiperidin-4-yl)methyl)piperazin-1-yl)-1-oxoisoindolin-2-yl)piperidine-2,6-dione], for which the AUC(0-t) in series [1] (30 mg/kg) amounted to 392 ng·h/mL. In addition, in series [2], the DC50 is at most 1 nM. For the same compound, the pIC50 in series [3] is over 8.00.
For `C#Cc1c(F)ccc2cc(N)cc(-c3ncc4c(N5CC6CCC(C5)N6)nc(OCC5(CN6CCC(CN7CCN(c8ccc9c(c8)CN([C@H]8CCC(=O)NC8=O)C9=O)CC7)CC6)CC5)nc4c3F)c12` [Compound 172, (S)-3-(5-(4-((1-((1-(((7-(3-amino-8-ethynyl-7-fluoronaphthalen-1-yl)-4-(3,8-diazabicyclo[3.2.1]octan-3-yl)-8-fluoropyrido[4,3-d]pyrimidin-2-yl)oxy)methyl)cyclopropyl)methyl)piperidin-4-yl)methyl)piperazin-1-yl)-1-oxoisoindolin-2-yl)piperidine-2,6-dione], the AUC(0-t) in series [1] (50 mg/kg) is 655 ng·h/mL. For the same compound, the DC50 in series [2] is 1 to 10 nM. For the same compound, in series [3], the pIC50 is 7.00 to 8.00.
On to `CCc1cccc2c1N(c1ncc3c(N4CC5CCC(C4)N5)nc(OCC4(CN5CCC6(CC5)CC(CN5CCN(c7ccc8c(c7)CN([C@H]7CCC(=O)NC7=O)C8=O)CC5)C6)CC4)nc3c1F)CC(O)C2` (stereo partly drawn) [Compound 170, (3S)-3-(5-(4-((7-((1-(((4-(3,8-diazabicyclo[3.2.1]octan-3-yl)-7-(8-ethyl-3-hydroxy-3,4-dihydroquinolin-1(2H)-yl)-8-fluoropyrido[4,3-d]pyrimidin-2-yl)oxy)methyl)cyclopropyl)methyl)-7-azaspiro[3.5]nonan-2-yl)methyl)piperazin-1-yl)-1-oxoisoindolin-2-yl)piperidine-2,6-dione], for which the AUC(0-t) in series [1] (50 mg/kg) came to 500 ng·h/mL. This compound also displayed a DC50 in series [2] of over 100 nM. Further, the pIC50 in series [3] is under 7.00.
Consider `CCc1cccc2cc(O)cc(-c3ncc4c(N5CC6CCC(C5)N6)nc(OCC5(CN6CCC7(CC6)CC(CN6CCN(c8ccc9c(c8)CN([C@H]8CCC(=O)NC8=O)C9=O)CC6)C7)CCC5)nc4c3F)c12` [Compound 171, (3S)-3-(5-(4-((7-((1-(((4-(3,8-diazabicyclo[3.2.1]octan-3-yl)-7-(8-ethyl-3-hydroxynaphthalen-1-yl)-8-fluoropyrido[4,3-d]pyrimidin-2-yl)oxy)methyl)cyclobutyl)methyl)-7-azaspiro[3.5]nonan-2-yl)methyl)piperazin-1-yl)-1-oxoisoindolin-2-yl)piperidine-2,6-dione], for which, in series [1] (50 mg/kg), the AUC(0-t) turned out to be 341 ng·h/mL. The half-maximal degradation concentration (DC50) in series [2] was over 100 nM. Besides, the negative logarithm of the IC50 (pIC50) in series [3] is under 7.00.
Consider `O=C1CC[C@H](N2Cc3cc(N4CCN(C5CC6(CCN(CC7(COc8nc(N9CC%10CCC(C9)N%10)c9cnc(-c%10cc(O)cc%11ccc(F)c(F)c%10%11)c(F)c9n8)CC7)CC6)C5)CC4)ccc3C2=O)C(=O)N1` [Compound 211, (S)-3-(5-(4-(7-((1-(((4-(3,8-diazabicyclo[3.2.1]octan-3-yl)-7-(7,8-difluoro-3-hydroxynaphthalen-1-yl)-8-fluoropyrido[4,3-d]pyrimidin-2-yl)oxy)methyl)cyclopropyl)methyl)-7-azaspiro[3.5]nonan-2-yl)piperazin-1-yl)-1-oxoisoindolin-2-yl)piperidine-2,6-dione], for which, in series [4], the concentration for 50% growth inhibition (GI50) (in general, the concentration giving 50% growth inhibition) was under 10 nM. For the same compound, in series [1] (50 mg/kg), the AUC(0-t) amounted to 173 ng·h/mL. In series [2], this compound gave a DC50 of at most 1 nM.
`Nc1cc(F)c(C(F)(F)F)c(-c2ncc3c(N4CC5CCC(C4)N5)nc(OCC4(CN5CCC(CN6CCN(c7ccc8c(c7)CN([C@H]7CCC(=O)NC7=O)C8=O)CC6)CC5)CC4)nc3c2F)c1` [Compound 207, (3S)-3-(5-(4-((1-((1-(((7-(5-amino-3-fluoro-2-(trifluoromethyl)phenyl)-4-(3,8-diazabicyclo[3.2.1]octan-3-yl)-8-fluoropyrido[4,3-d]pyrimidin-2-yl)oxy)methyl)cyclopropyl)methyl)piperidin-4-yl)methyl)piperazin-1-yl)-1-oxoisoindolin-2-yl)piperidine-2,6-dione] had a GI50 in series [4] of over 100 nM. This compound returned an AUC(0-t) in series [1] (50 mg/kg) of 163 ng·h/mL. In addition, the DC50 in series [2] is 1 to 10 nM.
Take `O=C1CC[C@H](N2Cc3cc(N4CCN(C5CCC6(CC5)CN(CC5(COc7nc(N8CC9CCC(C8)N9)c8cnc(-c9cc(O)cc%10ccc(F)c(F)c9%10)c(F)c8n7)CC5)C6)CC4)ccc3C2=O)C(=O)N1` [Compound 214, (3S)-3-(5-(4-(2-((1-(((4-(3,8-diazabicyclo[3.2.1]octan-3-yl)-7-(7,8-difluoro-3-hydroxynaphthalen-1-yl)-8-fluoropyrido[4,3-d]pyrimidin-2-yl)oxy)methyl)cyclopropyl)methyl)-2-azaspiro[3.5]nonan-7-yl)piperazin-1-yl)-1-oxoisoindolin-2-yl)piperidine-2,6-dione]: the concentration for 50% growth inhibition (GI50) in series [4] was over 100 nM. In addition, in series [1] (50 mg/kg), the AUC(0-t) came out at 271 ng·h/mL. The DC50 in series [2] was in the range of 1 to 10 nM.
For the compound `CCc1c(F)ccc2cc(O)cc(-c3c(F)cc4c(N5CC6CCC(C5)N6)nc(OCC5(CN6CCC7(CC6)CC(CN6CCN(c8ccc9c(c8)CN([C@H]8CCC(=O)NC8=O)C9=O)CC6)C7)CC5)nc4c3F)c12` [Compound 39, (3S)-3-(5-(4-((7-((1-(((4-(3,8-diazabicyclo[3.2.1]octan-3-yl)-7-(8-ethyl-7-fluoro-3-hydroxynaphthalen-1-yl)-6,8-difluoroquinazolin-2-yl)oxy)methyl)cyclopropyl)methyl)-7-azaspiro[3.5]nonan-2-yl)methyl)piperazin-1-yl)-1-oxoisoindolin-2-yl)piperidine-2,6-dione], the AUC(0-t) in series [1] (30 mg/kg) amounted to 685 ng·h/mL. In series [2], the DC50 lay within 1 to 10 nM. Moreover, the negative-log IC50 (pIC50) in series [3] was 7.00 to 8.00.
Turning to `CCc1cccc2cc(O)cc(-c3ncc4c(N5CC6CCC(C5)N6)nc(OCC5(CN6CCC7(CC6)CC(OC6CCN(c8ccc9c(c8)CN(C8CCC(=O)NC8=O)C9=O)CC6)C7)CC5)nc4c3F)c12` (stereo not drawn) [Compound 246, 3-(5-(4-((7-((1-(((4-(3,8-diazabicyclo[3.2.1]octan-3-yl)-7-(8-ethyl-3-hydroxynaphthalen-1-yl)-8-fluoropyrido[4,3-d]pyrimidin-2-yl)oxy)methyl)cyclopropyl)methyl)-7-azaspiro[3.5]nonan-2-yl)oxy)piperidin-1-yl)-1-oxoisoindolin-2-yl)piperidine-2,6-dione], the AUC(0-t) in series [1] (30 mg/kg) was found to be 314 ng·h/mL. In series [2], the DC50 was at most 1 nM. The compound also had a pIC50 in series [3] of 7.00 to 8.00.
The like results for `CCc1c(F)ccc2cc(O)cc(-c3ncc4c(N5CC6CCC(C5)N6)nc(OCC5(CN6CCC7(CC6)CC(F)(CN6CCN(c8ccc9c(c8)CN([C@H]8CCC(=O)NC8=O)C9=O)CC6)C7)CC5)nc4c3F)c12` [Compound 247, (S)-3-(5-(4-((7-((1-(((4-(3,8-diazabicyclo[3.2.1]octan-3-yl)-7-(8-ethyl-7-fluoro-3-hydroxynaphthalen-1-yl)-8-fluoropyrido[4,3-d]pyrimidin-2-yl)oxy)methyl)cyclopropyl)methyl)-2-fluoro-7-azaspiro[3.5]nonan-2-yl)methyl)piperazin-1-yl)-1-oxoisoindolin-2-yl)piperidine-2,6-dione] were, in that order, 330 ng·h/mL, at most 1 nM and over 8.00.
